# What was measured:
# [1] = Test of solubility of crystal form A and its salts in four medias (HPLC, 24 hr); conditions: for Solubility (ug/mL)_24 hr: 24 hr stirring; for pH (24 hr): supernatant
# Procedure: (§1) Preparation of Control Solution (Crystal Form a as Control Sample)
# (§2) Crystal form A was accurately weighed and added into a sample vial. 10 mL of acetonitrile was added, and subject to ultrasonic treatment for 5 min. The mixture was cooled to room temperature, and mixed homogeneously. Two aliquots were formulated in parallel, and labelled as STD-1 and STD-2, respectively.
# Preparation of Linear Solution
# (§3) The control solution STD-1 was gradually diluted 1×, 5×, 10×, 100×, and 1000×, and labelled as the linear solutions L1, L2, L3, L4, L5.
# (§4) Test of Solubility of Crystal Form a and its Salts
# (§5) The crystal form A and its salts were tested for their solubility in medias at 4 different pH values. About 10 mg of free base (10.8 mg of hydrochloride, 12.1 mg of methane sulfonate) was added into a glass vial. Four aliquots were weighed, 5.0 mL of individual media (water, SGF, FaSSIF, FeSSIF*) was added to each aliquot, respectively. The mixture was mixed homogeneously to for a suspension. A magnet was placed into the suspension, which was placed on a magnetic stirred for stirring. After 24 hours of stirred, a sample was taken and centrifugalized. The supernatant was detected by HPLC for its concentration and pH value.
# [2] = physchem; conditions: FeSSIF, pH 4.89, fessif, thermodynamic from solid
# Procedure: as §1, §2
# Preparation of Linear Solution
# as §3, §4, §5
# [3] = Test of solid stability of crystal forms F, K and L; type: physicochemical
# Procedure: Test of Solid Stability of Crystal Form F (Hydrochloride), Crystal Form K (Methane Sulfonate) and Crystal Form L (Methane Sulfonate) […] About 5 mg of each crystal form was accurately weighed and placed in a glass vial. Two aliquots were taken as the sample for test under each condition and at each time point. One aliquot was taken as the sample for XRPD test under each condition and at each time point. The vials containing sample were sealed with aluminum foil, and the foil was pierced to form some holes thereon. Then, the samples were placed in constant temperature & humidity chambers under the conditions of 60° C./92.5% RH and 40° C./75% RH. [table] 2. Analysis of Sample of Solid Stability At the tested time point, the sample was taken out, capped, and stood to room temperature. […] Diluent: an aqueous solution of methanol-0.04% TFA (90:10, v:v) Mobile phase A: 0.04% aqueous solution of TFA Mobile phase B: Acetonitrile as mobile phase B. Crystal form F (hydrochloride): To each sample was added 18 mL of the diluent (to the sample at Day 0 was added 20 mL of the diluent). The mixture was subject to ultrasonic treatment for 2 min, and mixed homogeneously for use as the sample solution. Crystal forms K and L (methane sulfonate): To each sample was added 15 mL of the diluent. The mixture was subject to ultrasonic treatment for 2 min, and mixed homogeneously for use as the sample solution. NOTE: All the sample solutions were injected for analysis immediately after formulation. Once the HPLC system was stable, the sample was injected for analysis.
# [4] = test system: A549 Transplant Model; assay: Analysis of tumor growth inhibition (TGI), A549 transplant model; type: in vivo; conditions: mice, QD
# Procedure: The development and growth of tumors are evaluated by the relation between the tumor volume and time. The long axis (L) and the short axis (W) are measured with caliper twice per week. The tumor volume (TV) is calculated in accordance with the formula of (L×W^2)/2. TGI is calculated from the difference between the median tumor volume of mice of the solvent group and the median tumor volume of mice of the administration group, and expressed as a percentage relative to the median tumor volume of the solvent group.
# It is calculated from the equation of: % TGH(Median Tumor Volume (Control Group) Median Tumor Volume (Administration Group))/Median Tumor Volume (Control Group))×100%
# The initial statistical analysis is carried out by repeated variance analyses. Next, multiple comparisons are made by Scheffe psot hoc test method. A solvent (aqueous solution containing 0.5% of methylcellulose and 0.2% Tween) alone is used as negative control.
# [5] = FaSSIF (pH 6.48), listed as Hydrochloride Crystal form F
# [6] = Water (pH 6.33), listed as Hydrochloride Crystal form F
# [7] = 40° C./75% RH, Day 5, sum of impurities > 0.02%
# [8] = 60° C., Day 5, sum of impurities > 0.02%
# [9] = 92.5% RH, Day 5, sum of impurities > 0.02%
# [10] = -20° C., Day 0 (control per se), Table 17
# [11] = -20° C., Day 0, sum of impurities > 0.02%
# [12] = FaSSIF (pH 6.48), listed as Methane sulfonate Crystal form K
# [13] = Water (pH 6.33), listed as Methane sulfonate Crystal form K
structure (smiles),measurement,setting,value
COc1cc2nccc(Oc3ccc(NC(=S)NC4CC4)c(Cl)c3F)c2cc1C(N)=O [Crystal form A],Solubility (ug/mL)_24 hr,[1]; FaSSIF (pH 6.48),2.62 µg/mL
same,Solubility (ug/mL)_24 hr,"[1]; SGF (pH 1.72), methane sulfonate loaded to 10 mg/mL of free base",692.77 µg/mL
same,Solubility (ug/mL)_24 hr,[1]; Water (pH 6.33),2.38 µg/mL
same,pH (24 hr),[1]; FaSSIF (pH 6.48),6.18
same,pH (24 hr),[1]; FeSSIF (pH 4.89),4.98
same,pH (24 hr),[1]; SGF (pH 1.72),1.97
same,pH (24 hr),[1]; Water (pH 6.33),7.16
COc1cc2nccc(Oc3ccc(NC(=S)NC4CC4)c(Cl)c3F)c2cc1C(N)=O [Crystal form F],Solubility (ug/mL)_24 hr,[1]; [5],64.32 µg/mL
same,Solubility (ug/mL)_24 hr,"[1]; SGF (pH 1.72), methane sulfonate loaded to 10 mg/mL of free base, listed as Hydrochloride Crystal form F",1217.07 µg/mL
same,Solubility (ug/mL)_24 hr,[1]; [6],319.05 µg/mL
same,pH (24 hr),[1]; [5],3.73
same,pH (24 hr),"[1]; FeSSIF (pH 4.89), listed as Hydrochloride Crystal form F",4.89
same,pH (24 hr),"[1]; SGF (pH 1.72), listed as Hydrochloride Crystal form F",1.80
same,pH (24 hr),[1]; [6],2.56
same,solubility at 24 h,[2],70.1 µg/mL
same,Content (%),"[3]; 40° C./75% RH, Day 5, Table 17",100.5%
same,Total impurity (%),[3]; [7],4.94%
same,Content (%),"[3]; 60° C., Day 5, Table 17",99.6%
same,Total impurity (%),[3]; [8],4.86%
same,Content (%),"[3]; 92.5% RH, Day 5, Table 17",100.3%
same,Total impurity (%),[3]; [9],4.52%
same,Content (%),[3]; [10],100.0%
same,Total impurity (%),[3]; [11],4.66%
COc1cc2nccc(Oc3ccc(NC(=S)NC4CC4)c(Cl)c3F)c2cc1C(N)=O [Crystal form K],Solubility (ug/mL)_24 hr,[1]; [12],38.04 µg/mL
same,Solubility (ug/mL)_24 hr,"[1]; SGF (pH 1.72), methane sulfonate loaded to 10 mg/mL of free base, listed as Methane sulfonate Crystal form K",6601.59 µg/mL
same,Solubility (ug/mL)_24 hr,[1]; [13],329.78 µg/mL
same,pH (24 hr),[1]; [12],3.92
same,pH (24 hr),"[1]; FeSSIF (pH 4.89), listed as Methane sulfonate Crystal form K",4.88
same,pH (24 hr),"[1]; SGF (pH 1.72), listed as Methane sulfonate Crystal form K",1.76
same,pH (24 hr),[1]; [13],2.53
same,Content (%),"[3]; 40° C./75% RH, Day 5, Table 17",98.5%
same,Total impurity (%),[3]; [7],5.32%
same,Content (%),"[3]; 40° C./75% RH, Day 10, Table 17",101.7%
same,Total impurity (%),"[3]; 40° C./75% RH, Day 10, sum of impurities > 0.02%",5.62%
same,Content (%),"[3]; 60° C., Day 5, Table 17",94.6%
same,Total impurity (%),[3]; [8],9.33%
same,Content (%),"[3]; 60° C., Day 10, Table 17",93.9%
same,Total impurity (%),"[3]; 60° C., Day 10, sum of impurities > 0.02%",8.94%
same,Content (%),"[3]; 92.5% RH, Day 5, Table 17",99.3%
same,Total impurity (%),[3]; [9],5.16%
same,Content (%),"[3]; 92.5% RH, Day 10, Table 17",99.5%
same,Total impurity (%),"[3]; 92.5% RH, Day 10, sum of impurities > 0.02%",4.87%
same,Content (%),[3]; [10],100.0%
same,Total impurity (%),[3]; [11],5.20%
COc1cc2nccc(Oc3ccc(NC(=S)NC4CC4)c(Cl)c3F)c2cc1C(N)=O [Crystal form L],Content (%),"[3]; 40° C./75% RH, Day 30, Table 18",99.4%
same,Total impurity (%),"[3]; 40° C./75% RH, Day 30, sum of impurities > 0.05%",0.9%
same,Content (%),"[3]; 40° C./75% RH, Day 60, Table 18",99.9%
same,Total impurity (%),"[3]; 40° C./75% RH, Day 60, sum of impurities > 0.05%",0.9%
same,Content (%),"[3]; 40° C./75% RH, Day 90, Table 18",97.5%
same,Total impurity (%),"[3]; 40° C./75% RH, Day 90, sum of impurities > 0.05%",1.0%
same,Content (%),"[3]; 60° C., Day 5, Table 18",97.8%
same,Total impurity (%),"[3]; 60° C., Day 5, sum of impurities > 0.05%",0.8%
same,Content (%),"[3]; 60° C., Day 10, Table 18",97.4%
same,Total impurity (%),"[3]; 60° C., Day 10, sum of impurities > 0.05%",0.8%
same,Content (%),"[3]; 60° C., Day 30, Table 18",97.1%
same,Total impurity (%),"[3]; 60° C., Day 30, sum of impurities > 0.05%",0.8%
same,Content (%),"[3]; 92.5% RH, Day 5, Table 18",98.0%
same,Total impurity (%),"[3]; 92.5% RH, Day 5, sum of impurities > 0.05%",0.8%
same,Content (%),"[3]; 92.5% RH, Day 10, Table 18",97.6%
same,Total impurity (%),"[3]; 92.5% RH, Day 10, sum of impurities > 0.05%",0.8%
same,Content (%),"[3]; 92.5% RH, Day 30, Table 18",100.2%
same,Total impurity (%),"[3]; 92.5% RH, Day 30, sum of impurities > 0.05%",0.8%
same,Content (%),"[3]; -20° C., Day 0, Table 18",97.5%
same,Total impurity (%),"[3]; -20° C., Day 0, sum of impurities > 0.05%",0.8%
same,TGI % (Last Administration),[4]; 50 mg/kg,82%
same,TGI % (Last Administration),[4]; 100 mg/kg,90%
same,TGI % (Last Administration),[4]; 200 mg/kg,91%
COc1cc2nccc(Oc3ccc(NC(=S)NC4CC4)c(Cl)c3F)c2cc1C(N)=O [methane sulfonate],"Solubility, conclusion in words","[1]; SGF, listed as methanesulfonate salt",good solubility
